Patent publication US20210024483A1, “HETEROCYLCOALKENYL DERIVATIVES USEFUL AS AGONISTS OF THE GPR120 AND / OR GPR40” (Janssen Pharmaceutica NV, priority 2018, published 2021)

Molecular target: T1, short form of the GPR120 receptor (Homo sapiens, UniProt Q5NUL3)
T1 construct: host or cells: PathHunter CHO-K1 GPR120S beta-Arrestin Cell Line
T1 sequence (Q5NUL3 1-361): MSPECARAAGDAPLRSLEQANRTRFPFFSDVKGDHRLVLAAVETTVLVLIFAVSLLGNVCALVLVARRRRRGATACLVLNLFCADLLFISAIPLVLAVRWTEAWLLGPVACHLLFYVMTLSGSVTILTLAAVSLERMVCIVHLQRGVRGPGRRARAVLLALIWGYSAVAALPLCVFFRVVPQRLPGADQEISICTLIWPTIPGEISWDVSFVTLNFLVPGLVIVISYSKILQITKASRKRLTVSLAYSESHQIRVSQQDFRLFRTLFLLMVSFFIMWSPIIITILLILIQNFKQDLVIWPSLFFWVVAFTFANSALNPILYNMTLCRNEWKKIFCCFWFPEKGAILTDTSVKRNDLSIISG
Test: Human GPR120 DiscoveRx PathHunter Beta-Arrestin Assay, Procedure B
Assay type: cell-based
Details: PathHunter CHO-K1 GPR120S cells, 5000 cells/well
Source text: Human GPR120 DiscoveRx PathHunter® Beta-Arrestin Assay
The binding of an agonist (medium/long chain fatty acids or small molecule agonists) to the G-protein-coupled receptor GPR120 activates phospholipase C, leading to release of intracellular Ca^+2 through the generation of inositol 1,4,5-trisphosphate (InsP3 or IP3). GPR120 activation can also trigger intracellular signaling via recruitment of Beta-Arrestin. In the present method, agonist-induced activation of the human GPR120 receptor is monitored through the use of PathHunter® CHO-K1 GPR120 Beta-Arrestin Cell Line engineered by DiscoveRx, as detailed below. The cell lines were designed to co-express both the ProLink/Enzyme Donor (PK)-tagged GPCR and the Enzyme […] (EA)-tagged Beta-Arrestin fusion proteins. Upon GPR120 receptor stimulation/activation, the EA-tagged Beta-Arrestin portion is translocated to the tagged receptor, where the two enzyme fragments are brought within close proximity. Under these conditions, these fragments can interact and form an active Beta-gal enzyme complex through Enzyme Fragment Complementation (EFC). This active Beta-gal complex can enzymatically hydrolyse the substrate to produce a detectable light signal; therefore, activation as a function of agonist concentration can be expressed as an EC50 value to determine relative compound activities. This in vitro assay therefore serves to assess compound agonist activity of the GPR120.
In Procedure β-arrestin B the cells used were PathHunter® CHO-K1 GPR120S β-Arrestin Cell Line, expressing the short form of the GPR120 receptor (Accession #[…]), with 5000 cells/well.
The selected CHO-K1 GPR120 β-Arrestin cells were cultured in Ham's F12 media supplemented with 10% fetal bovine serum (FBS), 1% Glutamine, 1× p/s, 800 μg/mL G418 and 300 μg/mL Hygromycin B (for selection). Cell stocks were maintained and grown in a sub-confluent state using standard cell culture procedures. The day before the experiment, the cells were harvested with non-enzymatic cell dissociation buffer and re-suspended in complete growth media at the desired concentration. A Corning 384-plate was then seeded with the proper number of cells in a volume of 25 μL, per well. The seeded plates were incubated overnight at 37° C.
On the day of the experiment, the Assay Buffer containing (a) HBSS with Ca^++ and Mg^++, (b) 20 mM HEPES, and (c) 0.1% BSA stabilizer (pH 7.4) was prepared. The growth medium was gently removed from the cell plates and 20 μL of Assay Buffer added to each well. The plate was then incubated at 37° C. for 60 min. Test compounds were serially diluted in Assay Buffer to desired concentrations (more particularly to one or more of the following μM concentrations: 25, 12.5, 6.25, 3.12, 1.56, 0.78, 0.39, 0.19, 0.10, 0.05, 0.02, 0.01). Five μL of compound dilution was then added to each well and the plate incubated at 37° C. for 90 min. The detection reagents were prepared according to the manufacture's instruction. Twelve μL of the detection reagents were added to each well and the plate incubated at room temperature for 60 min.
The plates were read on an EnVision instrument, using Protocol name: Luminescence, Plate type: 384 Costar, Measurement height: 3 mm, Measurement time: 1 s, Aperture: 384 Plate aperture. The % Activity relative to the positive control was calculated using the following equation:
The % Activity values were plotted versus the concentration of test compound and fitted to a sigmoidal dose-response curve with a Hill slope=1 (fixed value) using nonlinear regression with GraphPad Prism 5.0 to calculate the EC50 values. The Fitting Equation was: Y=Bottom+(Top−Bottom)/(1+10^((Log EC50−X)*HillSlope)), where X is the log of the concentration and Y is the response.

With Cc1c(CCC(=O)O)ccc(OCC2=C(c3ccc(Cl)cc3)COCC2)c1C [ID No. 745, 3-[4-[[5-(4-chlorophenyl)-3,6-dihydro-2H-pyran-4-yl]methoxy]-2,3-dimethyl-phenyl]propanoic acid] the EC50 was 243 nM.
